For this assay, the system named is galanin receptors. Description: [35S]GTPγS autoradiography on tissue membrane arrays with galanin receptor ligands. The class given is biochemical, rat. Particulars: for effect on the action of galnon on [35S]GTPγS fixing: combination with galnon, tissue arrays (FIG. 5); for [35S]GTPγS fixing in the presence of ligand versus baseline: pituitary gland membranes, tissue array (FIG. 4). The text has this:
5 male Sprague Dawley rats (250-275 g) were anesthetized and sacrificed according to the guide approved by the Ethics Committee of the Faculty of Medicine of the University of the Basque Country, following the internationally accepted guidelines (86/609/EEC). The organs and tissue which were to be used in the experiment (pancreas, stomach, small intestine, spleen, heart, lung, liver, testicle, vas deferens, kidney, suprarenal glands, bone marrow and brain: frontal cortex, striatum, brain stem, pituitary gland, olfactory nuclei, hippocampus, hypothalamus, thalamus, colliculus and cerebellum) were then removed. These samples were stored at −70° C. until the experiment was carried out.
The tissue samples (1 g) were homogenized using a teflon-glass homogenizer (10 strokes at 1,500 rpm) in 30 volumes of homogenization buffer [1 mM ethylene glycol-bis(β-aminoethyl)-N,N,N′,N′-tetraacetic acid (EGTA), 3 mM MgCl2, 1 mM dithiothreitol (DTT) and 50 mM Tris-HCl, pH 7.4] supplemented with […] sucrose. The crude homogenate was centrifuged at 3,000×g and at 4° C. for 5 minutes and the resulting supernatant was again centrifuged at 40,000×g for 10 minutes (4° C.). The pellet was washed in 20 volumes of homogenization buffer and re-centrifuged in the same conditions. Aliquots were carried out and stored at −70° C. The protein content was determined according to the Bradford method [Bradford M M., Anal Biochem 1976; 72:248-54] using bovine serum albumin (BSA) as a standard.
1 mg/ml aliquots of each tissue were taken and with this suspension, 1 μl microspots were made on glass supports (slides) which were previously treated with concentrated orthophosphoric acid (85%); to that end, the slides were first washed with acetone and then with anhydrous isopropanol, they were dried and finally submersed in concentrated orthophosphoric acid (85%) for 24 hours, they were washed with distilled water (Millipore) and air-dried. The arrays were frozen at −70° C. until the experiment was carried out.
The slides with tissue sections were allowed to dry for 15 minutes at room temperature. The tissue section were then pre-incubated in assay buffer at pH 7.4 [50 mM Tris-HCl, 3 mM MgCl2, 0.2 mM EGTA, 100 mM NaCl, 3 mU/ml adenosine deaminase] for 20 minutes at room temperature to eliminate, as much as possible, the presence of endogenous neurotransmitters; afterwards, the sections were pre-incubated again in the assay buffer supplemented with guanosine diphosphate (GDP) (2 mM) and DTT (1 mM).
The slides were then incubated for 2 hours at 30° C. in the previous assay buffer, to which the following substances were added according to the different conditions of the experiment:
Baseline: 0.04 nM [^35S] GTPγS
Activated: 0.04 nM [^35S] GTPγS+agonist
Inhibited: 0.04 nM [^35S]GTPγS+agonist+antagonist
Non-specific: 0.04 nM [^35S] GTPγS+10 μM GTPγS
Once this time had elapsed, 2 washings of 15 minutes in the buffer 50 mM Tris-HCl, pH 7.4 at 4° C. were carried out. After the second washing, the sections were submersed in distilled water at 4° C. to eliminate the salts and the slide was dried by means of applying a cold air current.
The slides with the corresponding sections were then exposed to a radiosensitive film (Kodak Biomax MR) which was developed in a manner similar to a photographic film. The labeling was quantified according to the different gray densities at nCi/g of tissue equivalent. To that end, each film was exposed together with the previously calibrated commercial standards (Amersham). The quantification was carried out with microscopic anatomical resolution in a computerized image analysis system, using NIH-image software, of G protein activation.
The following ligands were used to study [^35S] GTPγS fixing in the absence (baseline) and in the presence of galanin receptor ligands: galanin, galnon, gal (2-11), M15 [galanin-(1-13)-substance P-5-11 amide], M35 [galanin-(1-13)-bradykinin-(2,9) amide] and M40 [galanin-(1-13)-[…]amide].

Peptide text beside a SMILES is read from it.

On to “galanin-(1-13)-Pro-Pro-Ala-Leu-Ala-Leu-Ala-Leu-Ala amide [M40]”, for which the “effect on the action of galnon on [35S]GTPγS fixing” value is “antagonized” and the “[35S]GTPγS fixing in the presence of ligand versus baseline” value is reported as “increase”.

As for “galanin-(1-13)-substance P-5-11 amide [M15]”, the “[35S]GTPγS fixing in the presence of ligand versus baseline” value is listed as “increase”.

For “galanin-(1-13)-bradykinin-(2,9) amide [M35]”, the “effect on the action of galnon on [35S]GTPγS fixing” value was “antagonized” and the “[35S]GTPγS fixing in the presence of ligand versus baseline” value was “increase”.

On to gal (2-11): galanin receptor ligand, for which the “[35S]GTPγS fixing in the presence of ligand versus baseline” value is “increase”.

Take `Cc1cc(=O)oc2cc(NC(=O)[C@H](CCCCN)NC(=O)[C@H](CC3CCCCC3)NC(=O)OCC3c4ccccc4-c4ccccc43)ccc12` [galnon] (HELM PEPTIDE1{[O=C(OCC1c2ccccc2-c2ccccc21)[*:2]].[Cha].K.[Cc1cc(=O)oc2cc(N[*:1])ccc12]}$$$$V2.0): the “[35S]GTPγS fixing in the presence of ligand versus baseline” value is recorded as “increase”.

For the origin of these results see patent US8017346B2, “Method of quantifying the G protein-coupled receptor (GPCR)/G protein coupling using a cell membrane array” (Universidad Del Pais Vasco, priority 2005, dated 2011).
